The values that follow come from article PMC7252619 (PLoS ONE, 2020).

In data set [1] the target is T1, NEK2 (Homo sapiens, UniProt P51955).
T1 construct: purchased ReactionBiology
T1 sequence (P51955 1-445): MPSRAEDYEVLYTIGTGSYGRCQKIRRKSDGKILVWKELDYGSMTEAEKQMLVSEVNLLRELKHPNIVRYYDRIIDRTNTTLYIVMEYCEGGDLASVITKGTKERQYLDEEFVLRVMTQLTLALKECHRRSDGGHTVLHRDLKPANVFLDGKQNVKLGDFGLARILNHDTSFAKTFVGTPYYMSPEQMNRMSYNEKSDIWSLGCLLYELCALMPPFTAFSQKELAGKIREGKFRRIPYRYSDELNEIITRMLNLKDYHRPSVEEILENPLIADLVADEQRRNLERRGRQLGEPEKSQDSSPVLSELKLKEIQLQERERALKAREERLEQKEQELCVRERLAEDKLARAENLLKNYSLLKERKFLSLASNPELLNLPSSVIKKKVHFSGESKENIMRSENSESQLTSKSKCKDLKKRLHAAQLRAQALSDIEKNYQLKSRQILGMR
The experiment in a line: Kinase activity test (ReactionBiology), % enzyme activity relative to DMSO. Conditions: NEK2. Type of data set: biochemical.

Data set [2] in a line: WST-1 cytotoxicity assay on RPMI1788 cells (B-cell line). The class given is cell-based, human. Conditions: human, RPMI1788 cells (B-cell line), mean of 4 independent measures, read-out: Cytotoxicity, WST-1 RPMI 1788 IC 50 (µM) Mean.
Data set [3] can be described thus: WST-1 cytotoxicity assay on Jurkat cells (T-cell line). The class given is cell-based, human. Conditions: human, Jurkat cells (T-cell line), mean of 4 independent measures, read-out: Cytotoxicity, WST-1 Jurkat IC 50 (µM) Mean. In general terms: Tetrazolium assays rely on reduction of a dye to a coloured formazan, in cell work by metabolically active cells.
Data set [4] relates to human CD19+ B cells. The data set can be described thus: B-cell assay: IgG production of ODN2006-stimulated primary B cells (AlphaLISA). Type of data set: cell-based. Conditions: Homo sapiens, B-cell, 168 h. On the technique in general: Bead proximity is the source of the signal in Alpha formats.
Procedure: Compounds were prepared as 10 mM stock solutions in dimethylsulfoxide (DMSO)and were tested at 50-10-1-0.1-0.01 and 0.001 μM in the 4 assays.
Blood samples of healthy volunteers were collected at the Red Cross of Mechelen, Belgium.
Highly purified naive peripheral human B cells were separated from fresh human PBMCs on magnetic columns by positive selection using CD19 magnetic beads according to the manufacturer’s instructions (MACS Miltenyi Biotech, Leiden, The Netherlands). […] Freshly isolated human CD19+ B cells were then plated at 25 000 cells per well in a 384-well plate (Perkin Elmer, Zaventem, Belgium) in 55 μL in DMEM medium containing 10% FCS and 5 μg/mL gentamicin sulphate. After 7 days of stimulation with 0.1 μM ODN2006 (InvivoGen, Toulouse, France), supernatant was taken for analysis of IgG using the AlphaLISA human IgG kit according to the manufacturer’s instructions (Perkin Elmer, Zaventem, Belgium).
For data set [5], the system named is human PBMCs (responder cells) with RPMI1788 stimulator cells. The experiment in a line: Mixed Lymphocyte Reaction (MLR, T cell assay), 3H-thymidine incorporation. The class given is cell-based. Conditions: for IC50: Homo sapiens, RPMI-1788, mean of 4 independent measures, read-out: T-cell efficacy, MLR IC 50 (µM) Mean; for Selectivity Index (SI) MLR/B-cell: ratio of IC50 values. A general note: Uptake of a labelled nucleoside into DNA is a usual measure of proliferation.
Procedure: In order to test the efficacy and selectivity of the hit compounds on B-cells, 4 assays were performed: B-cell assay, Mixed Lymphocyte Reaction (MLR), WST-1 assay on RPMI1788 cells (B-cell line) and cytotoxicity WST-1 assay on Jurkat cells (T-cell line). Compounds were prepared as 10 mM stock solutions in dimethylsulfoxide (DMSO)and were tested at 50-10-1-0.1-0.01 and 0.001 μM in the 4 assays.
Blood samples of healthy volunteers were collected at the Red Cross of Mechelen, Belgium. Each donor consents to the use of their blood for research purposes. […] The human B cell line RPMI1788 (American Type Culture Collection, USA) and the human T cell line Jurkat (European Collection of Cell Cultures, ECACC, England) were maintained in RPMI1640 culture medium (BioWhittaker®, Lonza, Verviers, Belgium) containing 10% foetal calf serum (FCS, HyClone® Thermo Scientific, United Kingdom) and 5 μg/mL gentamicin sulphate (BioWhittaker®, Lonza, Verviers, Belgium) at 37°C and 5% CO2.
MLR assay (T cell assay): Freshly isolated human PBMCs (responder cells) were resuspended in RPMI1640 medium containing 10% FCS and 5nμg/mL gentamicin sulphate. RPMI1788 cells (stimulator cells) were inactivated by treatment with mitomycin C (Kyowa®, Takeda Belgium, Brussels, Belgium) for 20 min at 37°C, washed and finally suspended in culture medium. An amount of 100 μL of each cell suspension was mixed with 20 μL of diluted compound. The mixed cells were cultured at 37°C for 6 days in 5% CO2. DNA synthesis was assayed by the addition of 10 μCi (methyl-3H) thymidine (Perkin Elmer, Zaventem, Belgium) per well during the last 18 h in culture. Thereafter, the cells were harvested on glass filter paper and the counts per minute determined in a liquid scintillation counter (TopCount, Perkin Elmer, Zaventem, Belgium).

Data set [6] deals with T2, CK1d (Homo sapiens, UniProt P48730).
T2 construct: purchased ReactionBiology
The experiment in a line: Kinase activity test (ReactionBiology), % enzyme activity relative to DMSO. The class given is biochemical. Conditions: CK1d.

Data set [7] concerns the target T3, DAPK1 (Homo sapiens, UniProt P53355).
T3 construct: purchased ReactionBiology
Described as above. Conditions: DAPK1, Average. The class given is biochemical.

The target in data set [8] is T4, CDC7 (Homo sapiens, UniProt O00311).
T4 construct: purchased ReactionBiology
Described as above. Conditions: CDC7, Average. The class given is biochemical.

Data set [9] has as its target T5, EPHB4 (Homo sapiens, UniProt P54760).
T5 construct: purchased ReactionBiology
T5 sequence (P54760 16-987): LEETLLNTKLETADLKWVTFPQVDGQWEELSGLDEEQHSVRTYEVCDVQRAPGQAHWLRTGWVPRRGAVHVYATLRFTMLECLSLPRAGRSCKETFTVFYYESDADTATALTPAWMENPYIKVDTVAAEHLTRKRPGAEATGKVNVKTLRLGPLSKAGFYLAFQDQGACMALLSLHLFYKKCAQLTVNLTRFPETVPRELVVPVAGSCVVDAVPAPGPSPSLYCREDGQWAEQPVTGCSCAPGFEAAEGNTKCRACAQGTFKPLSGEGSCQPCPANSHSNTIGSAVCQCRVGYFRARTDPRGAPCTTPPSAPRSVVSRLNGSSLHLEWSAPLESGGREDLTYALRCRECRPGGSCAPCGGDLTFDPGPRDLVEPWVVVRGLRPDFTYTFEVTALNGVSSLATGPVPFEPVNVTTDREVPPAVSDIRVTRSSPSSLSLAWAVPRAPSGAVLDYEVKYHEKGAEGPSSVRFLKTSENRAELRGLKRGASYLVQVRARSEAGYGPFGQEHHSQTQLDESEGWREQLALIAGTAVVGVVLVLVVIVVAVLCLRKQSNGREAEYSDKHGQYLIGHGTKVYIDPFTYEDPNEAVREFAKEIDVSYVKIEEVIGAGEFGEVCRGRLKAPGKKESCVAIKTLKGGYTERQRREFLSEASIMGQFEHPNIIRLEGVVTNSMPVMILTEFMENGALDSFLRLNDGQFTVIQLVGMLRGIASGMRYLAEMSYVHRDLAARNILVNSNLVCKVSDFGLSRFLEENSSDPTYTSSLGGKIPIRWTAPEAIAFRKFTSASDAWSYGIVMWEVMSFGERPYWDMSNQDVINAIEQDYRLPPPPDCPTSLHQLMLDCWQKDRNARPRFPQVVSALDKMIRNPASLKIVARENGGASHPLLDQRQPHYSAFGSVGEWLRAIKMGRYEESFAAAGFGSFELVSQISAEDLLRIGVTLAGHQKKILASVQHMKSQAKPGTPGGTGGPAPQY
The description is as above. The class given is biochemical. Conditions: EPHB4, Average.

In data set [10] the target is VEGFR2 (Homo sapiens, UniProt P35968). The description is as above. The class given is biochemical. Also noted: purchased ReactionBiology. Conditions: VEGFR2.
Setting [11] is: 1 uM, Average, read-out: % Enzyme Activity (relative to DMSO controls), Average.
The mark [12] stands for this setting: 1 uM, replicate Data 1, read-out: % Enzyme Activity (relative to DMSO controls), Data 1.
[13] abbreviates: 1 uM, replicate Data 2, read-out: % Enzyme Activity (relative to DMSO controls), Data 2.
Where [14] appears, read: 10 uM, Average, read-out: % Enzyme Activity (relative to DMSO controls), Average.
Setting [15] is: 10 uM, replicate Data 1, read-out: % Enzyme Activity (relative to DMSO controls), Data 1.
The mark [16] stands for this setting: 10 uM, replicate Data 2, read-out: % Enzyme Activity (relative to DMSO controls), Data 2.
Where [17] appears, read: compound 1μM, relative to DMSO controls, read-out: % Enzyme activity at 1μM.
The mark [18] stands for this setting: compound 10μM, relative to DMSO controls, read-out: % Enzyme activity at 10μM.
The mark [19] stands for this setting: IgG production, ODN2006 0.1 μM, 7 days, mean of 4 independent experiments, read-out: B-cell IC50.

Like-named read-outs stand apart in the source and are kept apart here.

T2 sequence (P48730 whole entry): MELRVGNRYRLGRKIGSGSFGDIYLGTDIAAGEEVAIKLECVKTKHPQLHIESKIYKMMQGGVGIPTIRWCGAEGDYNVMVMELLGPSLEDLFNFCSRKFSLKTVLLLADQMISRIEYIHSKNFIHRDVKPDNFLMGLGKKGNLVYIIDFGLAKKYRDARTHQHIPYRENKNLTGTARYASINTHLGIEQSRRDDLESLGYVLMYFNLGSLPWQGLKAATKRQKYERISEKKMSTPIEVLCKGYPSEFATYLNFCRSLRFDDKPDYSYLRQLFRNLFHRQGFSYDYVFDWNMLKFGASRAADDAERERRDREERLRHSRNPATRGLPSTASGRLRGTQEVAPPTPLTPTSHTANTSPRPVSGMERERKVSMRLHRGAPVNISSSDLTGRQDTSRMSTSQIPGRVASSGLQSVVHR
Chain of VEGFR2 (P35968 20-1356): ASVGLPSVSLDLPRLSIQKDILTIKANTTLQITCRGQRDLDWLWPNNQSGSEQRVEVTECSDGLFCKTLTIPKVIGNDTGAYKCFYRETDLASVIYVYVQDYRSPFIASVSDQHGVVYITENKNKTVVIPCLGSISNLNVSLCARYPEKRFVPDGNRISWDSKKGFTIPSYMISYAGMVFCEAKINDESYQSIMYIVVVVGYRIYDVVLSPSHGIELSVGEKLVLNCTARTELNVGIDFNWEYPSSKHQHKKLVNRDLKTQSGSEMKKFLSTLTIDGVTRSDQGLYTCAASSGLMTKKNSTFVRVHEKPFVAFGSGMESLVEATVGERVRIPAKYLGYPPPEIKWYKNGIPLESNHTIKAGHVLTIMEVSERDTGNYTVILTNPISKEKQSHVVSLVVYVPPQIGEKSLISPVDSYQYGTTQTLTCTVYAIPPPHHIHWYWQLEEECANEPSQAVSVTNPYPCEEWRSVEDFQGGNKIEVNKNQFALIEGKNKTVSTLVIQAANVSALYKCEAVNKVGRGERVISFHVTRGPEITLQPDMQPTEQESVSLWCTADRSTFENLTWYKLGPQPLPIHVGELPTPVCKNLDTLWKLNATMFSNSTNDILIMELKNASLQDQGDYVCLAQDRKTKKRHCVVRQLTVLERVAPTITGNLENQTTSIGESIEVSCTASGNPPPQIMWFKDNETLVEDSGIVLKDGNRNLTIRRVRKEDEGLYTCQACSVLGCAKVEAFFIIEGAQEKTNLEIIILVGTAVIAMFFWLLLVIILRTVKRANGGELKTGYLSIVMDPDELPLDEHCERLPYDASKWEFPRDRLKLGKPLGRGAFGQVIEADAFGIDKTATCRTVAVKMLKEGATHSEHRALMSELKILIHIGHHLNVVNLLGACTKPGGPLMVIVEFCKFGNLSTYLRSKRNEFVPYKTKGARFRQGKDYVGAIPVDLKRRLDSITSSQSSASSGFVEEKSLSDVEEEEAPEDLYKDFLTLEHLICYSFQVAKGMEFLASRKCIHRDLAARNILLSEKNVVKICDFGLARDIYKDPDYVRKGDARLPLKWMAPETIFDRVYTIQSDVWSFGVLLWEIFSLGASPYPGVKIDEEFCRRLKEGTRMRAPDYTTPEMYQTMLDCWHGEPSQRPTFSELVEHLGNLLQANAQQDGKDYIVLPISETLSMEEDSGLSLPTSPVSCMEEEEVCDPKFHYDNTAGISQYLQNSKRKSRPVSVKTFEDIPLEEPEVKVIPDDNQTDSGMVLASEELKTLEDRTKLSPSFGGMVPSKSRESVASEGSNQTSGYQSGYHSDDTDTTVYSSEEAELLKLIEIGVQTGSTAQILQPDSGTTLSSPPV
T4 sequence (O00311 whole entry): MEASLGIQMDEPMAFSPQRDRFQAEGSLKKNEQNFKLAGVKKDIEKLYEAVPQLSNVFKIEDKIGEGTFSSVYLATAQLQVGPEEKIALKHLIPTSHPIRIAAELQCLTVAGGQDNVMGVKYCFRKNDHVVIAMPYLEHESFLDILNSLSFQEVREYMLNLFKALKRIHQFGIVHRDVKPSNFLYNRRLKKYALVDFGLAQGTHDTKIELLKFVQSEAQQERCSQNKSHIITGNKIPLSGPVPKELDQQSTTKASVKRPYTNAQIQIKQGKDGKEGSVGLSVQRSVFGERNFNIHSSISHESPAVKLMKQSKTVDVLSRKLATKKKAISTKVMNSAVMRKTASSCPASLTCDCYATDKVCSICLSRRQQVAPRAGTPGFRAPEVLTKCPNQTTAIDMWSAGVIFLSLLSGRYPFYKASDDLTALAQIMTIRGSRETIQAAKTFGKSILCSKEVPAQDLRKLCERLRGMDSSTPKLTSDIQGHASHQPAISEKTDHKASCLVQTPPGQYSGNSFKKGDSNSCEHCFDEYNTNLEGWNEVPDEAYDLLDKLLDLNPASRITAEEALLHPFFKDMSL
T4 sequence (Q9UBU7 whole entry partner): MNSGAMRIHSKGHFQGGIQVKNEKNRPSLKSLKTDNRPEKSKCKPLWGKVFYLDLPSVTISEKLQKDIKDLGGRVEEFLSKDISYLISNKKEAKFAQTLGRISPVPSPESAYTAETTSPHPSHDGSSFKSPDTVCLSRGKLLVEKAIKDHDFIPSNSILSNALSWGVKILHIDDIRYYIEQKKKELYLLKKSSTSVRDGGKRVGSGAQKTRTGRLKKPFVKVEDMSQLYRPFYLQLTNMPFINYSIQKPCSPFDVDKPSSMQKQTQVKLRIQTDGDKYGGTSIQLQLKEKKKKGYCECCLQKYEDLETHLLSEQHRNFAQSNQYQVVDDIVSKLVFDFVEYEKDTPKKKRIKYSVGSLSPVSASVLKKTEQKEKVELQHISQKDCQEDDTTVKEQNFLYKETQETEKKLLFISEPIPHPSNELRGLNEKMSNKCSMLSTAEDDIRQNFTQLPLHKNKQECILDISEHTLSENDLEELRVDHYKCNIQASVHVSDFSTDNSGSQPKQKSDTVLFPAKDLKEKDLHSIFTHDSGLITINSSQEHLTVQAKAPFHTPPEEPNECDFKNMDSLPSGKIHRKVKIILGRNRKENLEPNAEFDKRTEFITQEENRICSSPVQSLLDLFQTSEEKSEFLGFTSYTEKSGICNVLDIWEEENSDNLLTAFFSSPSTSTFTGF
T3 sequence (P53355 whole entry): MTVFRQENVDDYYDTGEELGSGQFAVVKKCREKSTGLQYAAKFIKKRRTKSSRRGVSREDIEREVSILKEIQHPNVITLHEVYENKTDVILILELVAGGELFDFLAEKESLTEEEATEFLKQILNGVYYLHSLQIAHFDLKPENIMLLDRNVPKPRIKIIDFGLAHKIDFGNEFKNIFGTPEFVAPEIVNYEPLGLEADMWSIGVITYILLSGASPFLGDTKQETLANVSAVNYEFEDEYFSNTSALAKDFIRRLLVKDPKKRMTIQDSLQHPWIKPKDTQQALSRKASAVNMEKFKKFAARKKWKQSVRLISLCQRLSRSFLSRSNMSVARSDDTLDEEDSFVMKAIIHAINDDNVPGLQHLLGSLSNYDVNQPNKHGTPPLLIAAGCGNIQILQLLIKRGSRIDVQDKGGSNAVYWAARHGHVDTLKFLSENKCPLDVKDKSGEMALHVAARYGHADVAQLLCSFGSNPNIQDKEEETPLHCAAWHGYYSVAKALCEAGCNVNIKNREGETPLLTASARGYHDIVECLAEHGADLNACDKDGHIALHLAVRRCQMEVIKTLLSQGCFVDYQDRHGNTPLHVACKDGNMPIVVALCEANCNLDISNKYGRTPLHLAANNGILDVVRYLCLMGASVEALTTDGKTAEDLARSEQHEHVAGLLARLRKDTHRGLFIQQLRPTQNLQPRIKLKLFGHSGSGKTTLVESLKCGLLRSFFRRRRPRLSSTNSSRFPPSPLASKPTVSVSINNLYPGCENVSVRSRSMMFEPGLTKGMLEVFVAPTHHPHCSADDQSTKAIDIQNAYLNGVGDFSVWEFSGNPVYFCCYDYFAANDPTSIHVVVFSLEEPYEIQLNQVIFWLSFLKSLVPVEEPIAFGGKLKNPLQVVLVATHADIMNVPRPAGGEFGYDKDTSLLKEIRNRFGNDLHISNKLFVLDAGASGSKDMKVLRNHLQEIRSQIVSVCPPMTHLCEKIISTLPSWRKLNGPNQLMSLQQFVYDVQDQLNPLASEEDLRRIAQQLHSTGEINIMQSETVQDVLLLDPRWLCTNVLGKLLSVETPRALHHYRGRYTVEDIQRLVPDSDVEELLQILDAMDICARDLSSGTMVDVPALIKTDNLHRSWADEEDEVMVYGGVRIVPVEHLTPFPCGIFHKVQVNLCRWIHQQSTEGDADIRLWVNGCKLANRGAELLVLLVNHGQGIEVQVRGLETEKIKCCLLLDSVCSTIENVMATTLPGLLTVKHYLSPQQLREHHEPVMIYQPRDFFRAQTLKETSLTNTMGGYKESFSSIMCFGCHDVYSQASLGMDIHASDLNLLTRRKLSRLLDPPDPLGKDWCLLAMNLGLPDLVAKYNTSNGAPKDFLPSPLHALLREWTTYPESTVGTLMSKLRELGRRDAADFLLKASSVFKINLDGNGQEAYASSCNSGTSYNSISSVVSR

In the case of `CN1CCN(CCCN2c3ccccc3Sc3ccc(Cl)cc32)CC1` [Prochlorperazine, reference compound], the remaining activity at 1 µM came out at 70.1% in data set [1] (setting [11]), 67.7% in data set [1] (setting [12]), 72.5% in [1] (setting [13]) and 70.1% in data set [1] (setting [17]). The remaining activity at 10 µM in [1] (setting [14]) worked out at 68.7%; in data set [1] (setting [15]) it was 69.6%; in data set [1] (setting [16]), 67.8%; in [1] (setting [18]), 68.7%. Besides, the IC50 at 48 h in data set [2] was determined as 9.63 µM; in data set [3], 21.9 µM.
With `N[C@@H](Cc1cc(I)c(Oc2ccc(O)c(I)c2)c(I)c1)C(=O)O` [Triiodothyronine], the IC50 in [4] (read-out: B-cell IC50 (μM)) turned out to be 36.8 µM; in [5], 44.2 µM. Further, the IC50 at 48 h in data set [3] was > 50 µM.
In the case of `CC/C(=C(/CC)c1ccc(O)cc1)c1ccc(O)cc1` [Diethylstilbestrol, reference compound], the remaining activity at 1 µM in data set [1] (setting [11]) was 97.9%; in [1] (setting [12]) it was 94.5%; in data set [1] (setting [13]), 101%; in data set [1] (setting [17]) it was 97.9%; in data set [6] (setting [11]), 106%; in data set [6] (setting [12]), 107%. The remaining activity at 1 µM in data set [6] (setting [13]) was found to be 104%. Besides, the remaining activity at 10 µM in data set [1] (setting [14]) was determined as 50.7%; in [1] (setting [15]), 44.7%; in [1] (setting [16]), 56.7%; in [1] (setting [18]) it was 50.7%; in data set [6] (setting [14]), 84.8%; in data set [6] (setting [15]) it was 84.6%. Also, the remaining activity at 10 µM in [6] (setting [16]) came out at 85.1%. The IC50 at 48 h in data set [2] was determined as 31.4 µM; in data set [3] it was 6.7 µM.
With `O=C(N[C@H](CO)[C@H](O)c1ccc([N+](=O)[O-])cc1)C(Cl)Cl` [Chloramphenicol], the “% Enzyme Activity (relative to DMSO controls), Average” value was 109.45% in data set [7] (1 uM); 99.12% in data set [7] (10 uM); 107.32% in data set [6] (1 uM, Average); 70.23% in [8] (1 uM); 72.94% in data set [8] (10 uM); 98.03% in [9] (1 uM). The “% Enzyme Activity (relative to DMSO controls), Average” value amounted to 95.14% in data set [9] (10 uM); 102.81% in data set [10] (1 uM, Average); 107.54% in [10] (10 uM, Average).
On to `CCN(CC)Cc1cc(Nc2ccnc3cc(Cl)ccc23)ccc1O` [Amodiaquine, reference compound], for which the remaining activity at 1 µM in data set [6] (setting [11]) amounted to 107%; in data set [6] (setting [12]), 106%; in data set [6] (setting [13]), 108%; in data set [6] (setting [17]) it was 107%. For the same compound, the remaining activity at 10 µM in data set [6] (setting [14]) came to 69.1%; in [6] (setting [15]), 70.5%; in data set [6] (setting [16]), 67.6%; in data set [6] (setting [18]) it was 69.1%. Moreover, the IC50 in [4] (setting [19]) came to 0.66 µM; in [5], 9.78 µM. Moreover, the “Selectivity Index (SI) MLR/B-cell” value in data set [5] came out at 14.73. Moreover, the IC50 at 48 h in [2] came out at 28.1 µM; in [3] it was 26.2 µM.
On to `C[C@@H]1CCN(C(=O)CC#N)C[C@@H]1N(C)c1ncnc2[nH]ccc12` [Tofacitinib], for which the IC50 at 48 h in [2] and in [3] was > 50 µM each time.
`Cc1cc(C#N)cc(C)c1Oc1nc(Nc2ccc(C#N)cc2)nc(N)c1Br` [Etravirine, reference compound]: the values for the IC50 in [4] (setting [19]) and in data set [5] were 5.9 µM and 7.27 µM, respectively. Also, in data set [5], the “Selectivity Index (SI) MLR/B-cell” value is listed as 1.23. Also, the values for the IC50 at 48 h in data set [2] and in data set [3] were 8 µM and 30.4 µM, respectively. In addition, the remaining activity at 1 µM in [10] (setting [11]), in data set [10] (setting [12]), in data set [10] (setting [13]) and in data set [10] (setting [17]) was 108% each time. In addition, the remaining activity at 10 µM in data set [10] (setting [14]) worked out at 41.1%; in data set [10] (setting [15]), 42.6%; in data set [10] (setting [16]) it was 39.5%; in [10] (setting [18]) it was 41.1%.
